The text below walks through data of patent US5807983A, “GNRH antagonist betides” (The Salk Institute for Biological Studies, priority 1996, dated 1998).

Data set [1] has as its system ovulation in mature female Sprague-Dawley rats. As to the kind of experiment: standard in vivo rat anti-ovulation test. As to conditions: injected in bacteriostatic water at about noon on the day of proestrus. As to the method: The betide is assayed in vivo to determine its effectiveness to prevent ovulation in female rats. Inthis test, a specified number of mature female Sprague-Dawley rats, e.g. five to ten, each having a body weight from 225 to 250 grams, are injected with a specified microgram dosage of the betide in bacteriostatic water at about noon on the day of proestrus. Proestrus is the […]. A separate female rat group is used as a control to which the peptide is not administered. Each of the control female rats ovulates on the evening of proestrus; the number of the rats treated which ovulate is recorded.

Data set [2] is described as follows: hydrophilicity by RP-HPLC retention. In kind it is physicochemical. The settings on record: for hydrophilicity compared to Acyline: RP-HPLC.

Non-standard residues stand in square brackets, D forms with d. Residues, ends and D or L forms follow the SMILES beside them. dPhe(4-NH2) = Nc1ccc(C[C@@H](N)C(=O)O)cc1; dPhe(4-Cl) = N[C@H](Cc1ccc(Cl)cc1)C(=O)O; Phe(4-NH2) = Nc1ccc(C[C@H](N)C(=O)O)cc1; d2Nal = N[C@H](Cc1ccc2ccccc2c1)C(=O)O; Lys(iPr) = CC(C)NCCCC[C@H](N)C(=O)O; d3Pal = N[C@H](Cc1cccnc1)C(=O)O

Turning to `CC(=O)Nc1ccc(C[C@H](NC(=O)[C@H](CO)NC(=O)C(NC(=O)[C@@H](Cc2ccc(Cl)cc2)NC(=O)[C@@H](Cc2ccc3ccccc3c2)NC(C)=O)N(C)C(=O)c2cccnc2)C(=O)N[C@H](Cc2ccc(NC(C)=O)cc2)C(=O)N[C@@H](CC(C)C)C(=O)N[C@@H](CCCCNC(C)C)C(=O)N2CCC[C@H]2C(=O)N[C@H](C)C(N)=O)cc1` (single isomer, unassigned) [Betide No. 1B second isomer, Ac-β-D-2Nal-D-Cpa-γ-(3-pyridyl)methylD/L-amidoGly-Ser-Aph(acetyl)-D-Aph(acetyl)-Leu-Lys(isopropyl)-Pro-D-Ala-NH2], the “anti-ovulatory activity: rats ovulating out of rats treated” value (shortened to “anti-ovulatory activity”) in data set [1] (dosage 2.5 μg) is listed as 3 out of 8. Further, the “hydrophilicity compared to Acyline” value in data set [2] was “more hydrophilic than Acyline”.

As for “Ac-2Nal-4Cl-D-Phe-D-3Pal-Ser-Aph(acetyl)-D-Aph(acetyl)-Leu-Lys(isopropyl)- Pro-D/L-Agl(methyl,For)-NH2 [Betide No. 8C]”, the “anti-ovulatory activity” value was 1 out of 8 in data set [1] (dosage 1 μg) and 0/8 in data set [1] (dosage 2.5 μg). For the same compound, the “hydrophilicity compared to Acyline” value in data set [2] is on record as “more hydrophilic than Acyline”.

With `CC(=O)Nc1ccc(C[C@H](NC(=O)[C@H](CO)NC(=O)C(NC(=O)c2ccncc2)NC(=O)[C@@H](Cc2ccc(Cl)cc2)NC(=O)[C@@H](Cc2ccc3ccccc3c2)NC(C)=O)C(=O)N[C@H](Cc2ccc(NC(C)=O)cc2)C(=O)N[C@@H](CC(C)C)C(=O)N[C@@H](CCCCNC(C)C)C(=O)N2CCC[C@H]2C(=O)N[C@H](C)C(N)=O)cc1` (single isomer, unassigned) [Betide No. 1A first isomer, Ac-β-D-2Nal-D-4Cpa-γ-(4-pyridyl)D/L-amidoGly-Ser-Aph(acetyl)-D- Aph(acetyl)-Leu-Lys(isopropyl)-Pro-D-Ala-NH2], the “anti-ovulatory activity” value is “only the second isomer was bioactive” in data set [1] (dosage 2.5 μg) and 3 out of 7 in data set [1] (dosage 10 μg). The “hydrophilicity compared to Acyline” value in data set [2] is recorded as “more hydrophilic than Acyline”.

In the case of `CC(=O)Nc1ccc(C[C@H](NC(=O)[C@H](CO)NC(=O)[C@@H](Cc2cccnc2)NC(=O)[C@@H](Cc2ccc(Cl)cc2)NC(=O)[C@@H](Cc2ccc3ccccc3c2)NC(C)=O)C(=O)N[C@H](Cc2ccc(NC(C)=O)cc2)C(=O)N[C@@H](CC(C)C)C(=O)N[C@@H](CCCCNC(C)C)C(=O)N2CCC[C@H]2C(=O)N[C@H](C)C(N)=O)cc1` [Acyline, Ac-D-2Nal-D-4Cpa-D-3Pal-Ser-Aph(Ac)-D-Aph(Ac)-Leu-ILys-Pro-D-Ala-NH2, reference compound] (Ac-[d2Nal][dPhe(4-Cl)][d3Pal]S[Phe(4-NH2)](Ac)[dPhe(4-NH2)](Ac)L[Lys(iPr)]P[dA]-NH2), in data set [2] (gradient 40% to 75% Buffer B over 30 minutes, Buffer A TEAP pH 7.3, Buffer B 60% CH3CN and 40% Buffer A), the “RP-HPLC retention (hydrophilicity)” value was 24.1 min.

For the compound “Ac-D-2Nal-D-4Cpa-D-3Pal-Ser-Aph(acetyl)-D-Aph(acetyl)-D/L-Agl(isobutyryl)- Lys(isopropyl)-Pro-D-Ala-NH2 [Betide No. 6A]”, the “anti-ovulatory activity” value is on record as 6 out of 8 in data set [1] (dosage 1 μg), 0 out of 8 in data set [1] (dosage 2.5 μg) and 0 out of 8 in data set [1] (dosage 10 μg).

On to `CC(=O)Nc1ccc(C[C@H](NC(=O)[C@H](CO)NC(=O)[C@@H](Cc2cccnc2)NC(=O)[C@@H](Cc2ccc(Cl)cc2)NC(=O)C(NC(C)=O)N(C)C(=O)c2ccc3ccccc3c2)C(=O)N[C@H](Cc2ccc(NC(C)=O)cc2)C(=O)N[C@@H](CC(C)C)C(=O)N[C@@H](CCCCNC(C)C)C(=O)N2CCC[C@H]2C(=O)N[C@H](C)C(N)=O)cc1` (single isomer, unassigned) [Betide No. 3C first isomer, Ac-D/L-Agl(methyl,2-naphthoyl)-D-4Cpa-D-3Pal-Ser-Aph(acetyl)-D-Aph(acetyl)-Leu-Lys(isopropyl)-Pro-D-Ala-NH2], for which the “anti-ovulatory activity” value in data set [1] (dosage 1 μg) is recorded as 2 out of 8; in data set [1] (dosage 2.5 μg) it was “fully active”.
